# System: miR-193a-3p (RNA, miRNA) AACUGGCCUACAAAGUCCCAGU
# Test: single-strand gel shift
# Conditions: 37 °C 30 min, 200 µM Trp; 15% native PAGE, 0.5x TBE
structure (smiles),measurement,value
N[C@@H](Cc1c[nH]c2ccccc12)C(=O)O,binding,yes

# From paper PMC11336974 (2024)
